According to ChEMBL document CHEMBL4257573, “Synthesis, modification, and cytotoxic evaluation of 2,3-secotriterpenic β-ketoesters” (Bioorg Med Chem Lett, 2018):
The source made the active and inactive calls. The calls are words filed in the database; no cut-off is given here.

Tests used:
[1] = system: HCT-116; assay: Cell cycle arrest in human HCT116 cells assessed as accumulation at S phase at 3 uM after 18 hrs by DAPI staining-based flow cytometric analysis (RVB = 25.49%); type: functional
[2] = system: HCT-116; assay: Induction of apoptosis in human HCT116 cells assessed as necrotic cells at 3 uM after 18 hrs by Annexin V/7-AAD staining based flow cytometric analysis (reference value: 0.62%); type: functional
[3] = system: HCT-116; assay: Cell cycle arrest in human HCT116 cells assessed as accumulation at G2/M phase at 3 uM after 18 hrs by DAPI staining-based flow cytometric analysis (RVB = 17.25%); type: functional
[4] = system: HCT-116; assay: Induction of apoptosis in human HCT116 cells assessed as necrotic cells at 6 uM after 18 hrs by Annexin V/7-AAD staining based flow cytometric analysis (reference value: 0.62%); type: functional
[5] = system: HCT-116; assay: Cell cycle arrest in human HCT116 cells assessed as decrease in accumulation at G0/G1 phase after 18 hrs by DAPI staining-based flow cytometric analysis; type: functional
[6] = system: HCT-116; assay: Cell cycle arrest in human HCT116 cells assessed as accumulation at G0/G1 phase at 6 uM after 18 hrs by DAPI staining-based flow cytometric analysis (RVB = 47.72%); type: functional
[7] = Cytotoxicity against human MS cells assessed as reduction in cell viability after 72 hrs by MTT assay; type: functional, cell-based
[8] = system: HCT-116; assay: Cell cycle arrest in human HCT116 cells assessed as accumulation at S phase at 6 uM after 18 hrs by DAPI staining-based flow cytometric analysis (RVB = 25.49%); type: functional
[9] = system: HCT-116; assay: Induction of apoptosis in human HCT116 cells assessed as late apoptotic cells at 6 uM after 18 hrs by Annexin V/7-AAD staining based flow cytometric analysis (reference value: 2.12%); type: functional
[10] = system: HCT-116; assay: Cell cycle arrest in human HCT116 cells assessed as accumulation at G0/G1 phase at 3 uM after 18 hrs by DAPI staining-based flow cytometric analysis (RVB = 47.72%); type: functional
[11] = system: HCT-116; assay: Induction of apoptosis in human HCT116 cells assessed as early apoptotic cells at 3 uM after 18 hrs by Annexin V/7-AAD staining based flow cytometric analysis (reference value: 5.84%); type: functional
[12] = system: HCT-116; assay: Cytotoxicity against human HCT116 cells assessed as reduction in cell viability at 3 to 6 uM by MTT assay; type: functional, cell-based; details: TDE = time-dependent effect
[13] = system: HCT-116; assay: Cell cycle arrest in human HCT116 cells assessed as accumulation at G2/M phase at 6 uM after 18 hrs by DAPI staining-based flow cytometric analysis (RVB = 17.25%); type: functional
[14] = system: HCT-116; assay: Induction of apoptosis in human HCT116 cells assessed as decrease in viable cells after 18 hrs by Annexin V/7-AAD staining based flow cytometric analysis; type: functional, cell-based
[15] = Selectivity index, ratio of IC50 for HEK293 cells to IC50 for human MCF7 cells; type: toxicity; details: HEK293 cells versus MCF7 cells, read-out: Ratio IC50
[16] = system: HEK293; assay: Cytotoxicity against HEK293 cells assessed as reduction in cell viability after 72 hrs by MTT assay; type: cell-based; details: Homo sapiens, HEK293, 72 h
[17] = system: HCT-116; assay: Cell cycle arrest in human HCT116 cells assessed as accumulation at sub-G0 phase at 6 uM after 18 hrs by DAPI staining-based flow cytometric analysis (RVB = 8.55%); type: functional
[18] = system: HCT-116; assay: Antimigratory activity in human HCT116 cells after 96 hrs by wound healing assay; type: functional, cell-based
[19] = system: HCT-116; assay: Induction of apoptosis in human HCT116 cells assessed as increase in number of cells with condense nucleus at 3 uM after 18 hrs by Hoechst 33258 /rhodamine 123 staining based fluorescence inverted microscopic analysis; type: functional, cell-based
[20] = system: HCT-116; assay: Induction of apoptosis in human HCT116 cells assessed as increase in early apoptotic cells after 18 hrs by Annexin V/7-AAD staining based flow cytometric analysis; type: functional, cell-based
[21] = system: HCT-116; assay: Induction of apoptosis in human HCT116 cells assessed as viable cells at 3 uM after 18 hrs by Annexin V/7-AAD staining based flow cytometric analysis (reference value: 91.42%); type: functional; details: HCT-116, 18 h, read-out: Activity
[22] = system: RD; assay: Cytotoxicity against human RD cells assessed as reduction in cell viability after 72 hrs by MTT assay; type: functional, cell-based
[23] = system: MCF7; assay: Cytotoxicity against human MCF7 cells assessed as reduction in cell viability after 72 hrs by MTT assay; type: functional, cell-based; details: MCF7, 72 h
[24] = system: A549; assay: Cytotoxicity against human A549 cells assessed as reduction in cell viability after 72 hrs by MTT assay; type: functional, cell-based; details: A549, 72 h
[25] = system: HEp-2; assay: Cytotoxicity against human Hep2 cells assessed as reduction in cell viability after 72 hrs by MTT assay; type: functional, cell-based; details: HEp-2, 72 h
[26] = Selectivity index, ratio of IC50 for HEK293 cells to IC50 for human MS cells; type: toxicity; details: HEK293 cells versus MS cells, read-out: Ratio IC50
[27] = system: HCT-116; assay: Induction of mitochondrial membrane depolarization in human HCT116 cells at 3 uM after 18 hrs by Hoechst 33258 /rhodamine 123 staining based fluorescence inverted microscopic analysis; type: functional, cell-based
[28] = system: HCT-116; assay: Cell cycle arrest in human HCT116 cells assessed as accumulation at sub-G0 phase at 3 uM after 18 hrs by DAPI staining-based flow cytometric analysis (RVB = 8.55%); type: functional
[29] = system: HCT-116; assay: Cytotoxicity against human HCT116 cells assessed as reduction in cell viability after 72 hrs by MTT assay; type: functional, cell-based
[30] = Selectivity index, ratio of IC50 for HEK293 cells to IC50 for human Hep2 cells; type: toxicity; details: HEK293 cells versus Hep2 cells, read-out: Ratio IC50
[31] = system: HCT-116; assay: Induction of apoptosis in human HCT116 cells assessed as viable cells at 6 uM after 18 hrs by Annexin V/7-AAD staining based flow cytometric analysis (reference value: 91.42%); type: functional; details: HCT-116, 18 h, read-out: Activity
[32] = system: HCT-116; assay: Induction of apoptosis in human HCT116 cells assessed as early apoptotic cells at 6 uM after 18 hrs by Annexin V/7-AAD staining based flow cytometric analysis (reference value: 5.84%); type: functional
[33] = system: HCT-116; assay: Induction of apoptosis in human HCT116 cells assessed as late apoptotic cells at 3 uM after 18 hrs by Annexin V/7-AAD staining based flow cytometric analysis (reference value: 2.12%); type: functional
[34] = system: HCT-116; assay: Antimigratory activity in human HCT116 cells at 2 uM after 96 hrs by wound healing assay; type: functional, cell-based
[35] = system: HCT-116; assay: Induction of apoptosis in human HCT116 cells assessed as necrotic cells at 2 uM after 18 hrs by Annexin V/7-AAD staining based flow cytometric analysis (reference value: 0.62%); type: functional
[36] = system: HCT-116; assay: Cell cycle arrest in human HCT116 cells assessed as accumulation at G0/G1 phase at 2 uM after 18 hrs by DAPI staining-based flow cytometric analysis (RVB = 47.72%); type: functional
[37] = system: HCT-116; assay: Cytotoxicity against human HCT116 cells assessed as reduction in cell viability at 2 uM by MTT assay; type: functional, cell-based; details: TDE = time-dependent effect
[38] = system: HCT-116; assay: Cell cycle arrest in human HCT116 cells assessed as accumulation at S phase at 2 uM after 18 hrs by DAPI staining-based flow cytometric analysis (RVB = 25.49%); type: functional
[39] = system: HCT-116; assay: Cell cycle arrest in human HCT116 cells assessed as accumulation at sub-G0 phase at 2 uM after 18 hrs by DAPI staining-based flow cytometric analysis (RVB = 8.55%); type: functional
[40] = system: HCT-116; assay: Cell cycle arrest in human HCT116 cells assessed as accumulation at G2/M phase at 2 uM after 18 hrs by DAPI staining-based flow cytometric analysis (RVB = 17.25%); type: functional
[41] = system: HCT-116; assay: Induction of apoptosis in human HCT116 cells assessed as late apoptotic cells at 2 uM after 18 hrs by Annexin V/7-AAD staining based flow cytometric analysis (reference value: 2.12%); type: functional
[42] = system: HCT-116; assay: Induction of apoptosis in human HCT116 cells assessed as early apoptotic cells at 2 uM after 18 hrs by Annexin V/7-AAD staining based flow cytometric analysis (reference value: 5.84%); type: functional
[43] = system: HCT-116; assay: Induction of apoptosis in human HCT116 cells assessed as viable cells at 2 uM after 18 hrs by Annexin V/7-AAD staining based flow cytometric analysis (reference value: 91.42%); type: functional; details: HCT-116, 18 h, read-out: Activity

Compound: C=C(C=O)[C@@H]1CC[C@]2(C(=O)OC)CC[C@]3(C)[C@H](CC[C@@H]4[C@@](C)(CC#N)[C@H](C(C)(C)C(=O)COC(C)=O)CC[C@]43C)[C@@H]12
- Activity [1]: 28.16%
- Activity [2]: 2.6%
- Activity [3]: 19.99%
- Activity [4]: 3.21%
- Activity [5]: Dose-dependent effect
- Activity [6]: 21.49%
- IC50 [7]: 3.61 µM
- Activity [8]: 24.03%
- Activity [9]: 11.2%
- Activity [10]: 35.65%
- Activity [11]: 14.06%
- Activity [12]: Tde
- Activity [13]: 15.27%
- Activity [14]: Dose-dependent effect
- selectivity ratio [15]: 2.42 to 9.61
- IC50 [16]: 29.5 µM
- Activity [17]: 38.29%
- Activity [18]: Dose-dependent effect
- Activity [19]: Active
- Activity [20]: Dose-dependent effect
- viability at 3 µM [21]: 71.3%
- IC50 [22]: 3.5 µM
- IC50 [23]: 9.68 µM
- IC50 [24]: 10.2 µM
- IC50 [25]: 12.2 µM
- selectivity ratio [26]: 2.42 to 9.61
- Activity [27]: Active
- Activity [28]: 15.07%
- Activity [29]: Dose-dependent effect
- IC50 ([29]; HCT-116, 72 h): 3.07 µM
- selectivity ratio [30]: 2.42 to 9.61
- viability at 6 µM [31]: 58.5%
- Activity [32]: 27.07%
- Activity [33]: 11.99%

Compound: CC[C@@]1(O)C(=O)OCc2c1cc1n(c2=O)Cc2cc3ccccc3nc2-1 [CAMPTOTHECIN]
- Activity [34]: Active
- Activity [35]: 5.08%
- Activity [36]: 27.71%
- IC50 [7]: 0.77 µM
- Activity [37]: Tde
- Activity [38]: 36.77%
- Activity [39]: 24.52%
- selectivity ratio [15]: 0.53 to 40.2
- IC50 [16]: 1.61 µM
- Activity [40]: 10.06%
- IC50 [22]: 1.72 µM
- IC50 [23]: 0.04 µM
- IC50 [24]: 1.31 µM
- Activity [41]: 7.33%
- Activity [42]: 5.73%
- selectivity ratio [26]: 0.53 to 40.2
- Activity [29]: Dose-dependent effect
- selectivity ratio [30]: 0.53 to 40.2
- viability at 2 µM [43]: 81.9%
